These are literature values, as cited in patent publication US12144796B2, “Formulations for treating cluster symptoms associated with autism spectrum disorder” (Ilera Therapeutics LLC, priority 2019, dated 2024).

Take `CC12CCC(CC1)C(C)(C)O2` [Eucalyptol, 1,3,3-trimethyl-2-oxabicyclo[2.2.2]octane]: the solubility in water result is given as “insoluble in water”.
